Laboratory results reported in EP3800188A1, “SUBSTITUTED PYRAZOLOPYRIMIDINES AS IRAK4 INHIBITORS” (Bayer AG, priority 2019, dated 2021).

Tests used:
human IRAK4 = molecular target: T1, human IRAK4 (Homo sapiens, UniProt Q9NWZ3); experiment: Human IRAK4 kinase activity inhibition assay (IRAK4 TR-FRET assay); format: biochemical; conditions: 1 mM ATP, GST-human IRAK4, average or median values
T1 construct: GST (N); made in house; host or cells: baculovirus-infected Hi5 (BTI-TN-5B1-4) insect cells
T1 sequence (Q9NWZ3 1-460): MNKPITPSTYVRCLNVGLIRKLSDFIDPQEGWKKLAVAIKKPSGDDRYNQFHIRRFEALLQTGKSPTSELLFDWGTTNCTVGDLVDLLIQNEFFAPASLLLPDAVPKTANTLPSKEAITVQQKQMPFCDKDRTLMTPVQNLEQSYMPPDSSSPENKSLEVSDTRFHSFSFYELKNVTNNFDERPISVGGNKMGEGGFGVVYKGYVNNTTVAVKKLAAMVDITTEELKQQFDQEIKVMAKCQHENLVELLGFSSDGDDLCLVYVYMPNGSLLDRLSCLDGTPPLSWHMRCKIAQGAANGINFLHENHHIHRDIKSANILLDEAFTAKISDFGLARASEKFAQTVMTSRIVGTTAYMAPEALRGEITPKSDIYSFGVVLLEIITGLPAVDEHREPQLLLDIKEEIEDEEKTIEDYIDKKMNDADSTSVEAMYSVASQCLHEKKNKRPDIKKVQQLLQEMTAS
Method in brief: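 GST-IRAK4 from insect cells (about 0.2 nM, linear range) was preincubated 15 min with compound (11 concentrations, 20 µM–0.073 nM) in HEPES pH 7.5 with MgCl2 and DTT before kinase reaction on a biotinylated peptide. Phosphopeptide was detected by TR-FRET (Eu anti-mouse-IgG/anti-phosphoserine/streptavidin-XL665, 1 h at 22°C) as the 665/620 nm ratio, normalized to no-compound and no-enzyme controls.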

[1] = Metabolic stability in human liver microsomes; conditions: 1 µM compound; for CLblood, human microsomes: hepatic in vivo blood clearance calculated with well stirred liver model, '(stable)' given beside < 0.01; for Fmax, human microsomes: maximal oral bioavailability calculated with well stirred liver model, 0.5 mg/mL protein, '(stable)' given beside 100
Protocol: The in vitro metabolic stability of test compounds was determined by incubating them at 1 µM in a suspension liver microsomes in 100 mM phosphate buffer, pH7.4 (NaH2PO4 x H2O + Na2HPO4 x 2H2O) and at a protein concentration of 0.5 mg/mL at 37° C. The microsomes were activated by adding a co-factor mix containing 8 mM Glukose-6-Phosphat, 4 mM MgCl2, 0.5 mM NADP and 1 IU/mL G-6-P-Dehydrogenase in phosphate buffer, pH 7.4. The metabolic assay was started shortly afterwards by adding the test compound to the incubation at a final volume of 1 mL. Organic solvent in the incubations was limited to ≤0.01 % dimethylsulfoxide (DMSO) and ≤1% acetonitril. During incubation, the microsomal suspensions were continuously shaken at 580 rpm, and aliquots were taken at 2, 8, 16, 30, 45 and 60 min, to which equal volumes of cold methanol were immediately added. Samples were frozen at -20° C over night, subsequently centrifuged for 15 min at 3000 rpm and the supernatant was analyzed with an Agilent 1200 HPLC-system with LCMS/MS detection.
The half-life of a test compound was determined from the concentration-time plot. From the half-life the intrinsic clearances were calculated. Together with the additional parameters liver blood flow, specific liver weight and microsomal protein content the hepatic in vivo blood clearance (CL) and the maximal oral bioavailability (Fmax) were calculated using the "well stirred" liver model. The following parameter values were used: Liver blood flow - 1.32 L/h/kg (human), 2.1 L/h/kg (dog); specific liver weight - 21 g/kg (human), 39 g/kg (dog); microsomal protein content - 40 mg/g.

Row | IC50 (human IRAK4) [nM] | CLblood, human microsomes [1] | Fmax, human microsomes [1] | Compound
1 | 6.15 | < 0.01 (stable) L/h/kg | 100 (stable) % | CC1(O)CCN(C2CN(c3nc(N[C@@H]4CNC(=O)C4)nc4c3cnn4-c3cccc(C(F)(F)F)c3)C2)CC1 [Example I-30, (4S)-4-({4-[3-(4-hydroxy-4-methylpiperidin-1-yl)azetidin-1-yl]-1-[3-(trifluoromethyl)phenyl]-1H-pyrazolo[3,4-d]pyrimidin-6-yl)amino)pyrrolidin-2-one]
2 | 12.6 | < 0.01 (stable) L/h/kg | 100 (stable) % | CN1CC[C@H](Nc2nc(N3C[C@@H](O)[C@H](O)C3)c3cnn(-c4cccc(C(F)(F)F)c4)c3n2)C1 [Example I-31, (3R,4R)-1-(6-{[(3S)-1-methylpyrrolidin-3-yl]amino}-1-[3-(trifluoromethyl)phenyl]-1H-pyrazolo[3,4-d]pyrimidin-4-yl)pyrrolidine-3,4-diol]
3 | 5.1 | 0.05 L/h/kg | 96% | CC(C)(N)C1CN(c2nc(NC3CCS(=O)(=O)CC3)nc3c2cnn3-c2cccc(C(F)(F)F)c2)C1 [Example I-45, 4-[3-(2-aminopropan-2-yl)azetidin-1-yl]-N-(1,1-dioxidotetrahydro-2H-thiopyran-4-yl)-1-[3-(trifluoromethyl)phenyl]-1H-pyrazolo[3,4-d]pyrimidin-6-amine]
4 | 1.4 | 0.25 L/h/kg | 81% | CC(C)(N)C1CCN(c2nc(NC3CCS(=O)(=O)CC3)nc3c2cnn3-c2cccc(C(F)(F)F)c2)CC1 [Example I-46, 4-[4-(2-aminopropan-2-yl)piperidin-1-yl]-N-(1,1-dioxidotetrahydro-2H-thiopyran-4-yl)-1-[3-(trifluoromethyl)phenyl]-1H-pyrazolo[3,4-d]pyrimidin-6-amine]
5 | 0.861 | 0.17 L/h/kg | 87% | CC(C)(N)C1CCN(c2nc(N[C@@H]3CNC(=O)C3)nc3c2cnn3-c2cccc(C(F)(F)F)c2)CC1 [Example I-47, (4S)-4-({4-[4-(2-aminopropan-2-yl)piperidin-1-yl]-1-[3-(trifluoromethyl)phenyl]-1H-pyrazolo[3,4-d]pyrimidin-6-yl}amino)pyrrolidin-2-one]
6 | 1.12 | < 0.01 (stable) L/h/kg | 100 (stable) % | NC1(C2CCN(c3nc(N[C@@H]4CNC(=O)C4)nc4c3cnn4-c3cccc(C(F)(F)F)c3)CC2)CC1 [Example I-48, (4S)-4-({4-[4-(1-aminocyclopropyl)piperidin-1-yl]-1-[3-(trifluoromethyl)phenyl]-1H-pyrazolo[3,4-d]pyrimidin-6-yl}amino)pyrrolidin-2-one]
7 | 3.85 | 0.13 L/h/kg | 90% | CC(C)(O)CC1CN(c2nc(N[C@@H]3CNC(=O)C3)nc3c2cnn3-c2cccc(C(F)(F)F)c2)C1 [Example I-49, (4S)-4-({4-[3-(2-hydroxy-2-methylpropyl)azetidin-1-yl]-1-[3-(trifluoromethyl)phenyl]-1H-pyrazolo[3,4-d]pyrimidin-6-yl}amino)pyrrolidin-2-one]
8 | 2.5 | 0.25 L/h/kg | 81% | O=C1C[C@H](Nc2nc(N3CC(CC(=O)N4CCOCC4)C3)c3cnn(-c4cccc(C(F)(F)F)c4)c3n2)CN1 [Example I-51, (4S)-4-[(4-{3-[2-(morpholin-4-yl)-2-oxoethyl]azetidin-1-yl}-1-[3-(trifluoromethyl)phenyl]-1H-pyrazolo[3,4-d]pyrimidin-6-yl)amino]pyrrolidin-2-one]
9 | 23 | < 0.01 (stable) L/h/kg | 100 (stable) % | C[C@]1(N)C[C@@H](Nc2nc(N3CCOCC3)c3cnn(-c4cccc(C(F)(F)F)c4)c3n2)C1 [Example I-58, cis-1-methyl-N^3-{4-(morpholin-4-yl)-1-[3-(trifluoromethyl)phenyl]-1H-pyrazolo[3,4-d]pyrimidin-6-yl}cyclobutane-1,3-diamine]
10 | 3.63 | 0.34 L/h/kg | 74% | CC1(N2CCOCC2)CN(c2nc(N[C@H]3C[C@H](S(C)(=O)=O)C3)nc3c2cnn3-c2cccc(C(F)(F)F)c2)C1 [Example I-59, 4-[3-methyl-3-(morpholin-4-yl)azetidin-1-yl]-N-[trans-3-(methylsulfonyl)cyclobutyl]-1-[3-(trifluoromethyl)phenyl]-1H-pyrazolo[3,4-d]pyrimidin-6-amine]
11 | 34.2 | 0.37 L/h/kg | 72% | O=S1(=O)CCC(Nc2nc(N3CC(CN4CCOCC4)C3)c3cnn(-c4cccc(C(F)(F)F)c4)c3n2)CC1 [Example I-60, N-(1,1-dioxidotetrahydro-2H-thiopyran-4-yl)-4-[3-(morpholin-4-ylmethyl)azetidin-1-yl]-1-[3-(trifluoromethyl)phenyl]-1H-pyrazolo[3,4-d]pyrimidin-6-amine]
12 | 2.57 | < 0.01 (stable) L/h/kg | 100 (stable) % | NC1(C2CCN(c3nc(NC4CCS(=O)(=O)CC4)nc4c3cnn4-c3cccc(C(F)(F)F)c3)CC2)CC1 [Example I-62, 4-[4-(1-aminocyclopropyl)piperidin-1-yl]-N-(1,1-dioxidotetrahydro-2H-thiopyran-4-yl)-1-[3-(trifluoromethyl)phenyl]-1H-pyrazolo[3,4-d]pyrimidin-6-amine]
13 | 5.33 | 0.24 L/h/kg | 82% | CC(C)(O)CC1CN(c2nc(N[C@H]3C[C@H](S(C)(=O)=O)C3)nc3c2cnn3-c2cccc(C(F)(F)F)c2)C1 [Example I-67, 2-methyl-1-[1-(6-{[trans-3-(methylsulfonyl)cyclobutyl]amino}-1-[3-(trifluoromethyl)-phenyl]-1H-pyrazolo[3,4-d]pyrimidin-4-yl)azetidin-3-yl]propan-2-ol]
14 | 23 | 0.02 L/h/kg | 99% | CC(C)(O)CC1CN(c2nc(NC3CN(S(C)(=O)=O)C3)nc3c2cnn3-c2cccc(C(F)(F)F)c2)C1 [Example I-68, 2-methyl-1-[1-(6-{[1-(methylsulfonyl)azetidin-3-yl]amino}-1-[3-(trifluoromethyl)phenyl]-1H-pyrazolo[3,4-d]pyrimidin-4-yl)azetidin-3-yl]propan-2-ol]
15 | 4.83 | 0.11 L/h/kg | 91% | O[C@H]1C[C@H](Nc2nc(N3CC(N4CCOCC4)C3)c3cnn(-c4cccc(C(F)(F)F)c4)c3n2)C1 [Example I-74, trans-3-({4-[3-(morpholin-4-yl)azetidin-1-yl]-1-[3-(trifluoromethyl)phenyl]-1H-pyrazolo-[3,4-d]pyrimidin-6-yl}amino)cyclobutanol]
16 | 9.61 | 0.30 L/h/kg | 77% | CC1(N2CCOCC2)CN(c2nc(N[C@H]3C[C@@H](O)C3)nc3c2cnn3-c2cccc(C(F)(F)F)c2)C1 [Example I-76, cis-3-({4-[3-methyl-3-(morpholin-4-yl)azetidin-1-yl]-1-[3-(trifluoromethyl)phenyl]-1H-pyrazolo[3,4-d]pyrimidin-6-yl}amino)cyclobutanol]
17 | 4.8 | 0.36 L/h/kg | 72% | C[C@]1(O)C[C@H](Nc2nc(N3CC(N4CCOCC4)C3)c3cnn(-c4cccc(C(F)(F)F)c4)c3n2)C1 [Example I-77, trans-1-methyl-3-({4-[3-(morpholin-4-yl)azetidin-1-yl]-1-[3-(trifluoromethyl)phenyl]-1H-pyrazolo[3,4-d]pyrimidin-6-yl}amino)cyclobutanol]
18 | 5.62 | 0.32 L/h/kg | 76% | C[C@]1(O)C[C@@H](Nc2nc(N3CC(N4CCOCC4)C3)c3cnn(-c4cccc(C(F)(F)F)c4)c3n2)C1 [Example I-78, cis-1-methyl-3-({4-[3-(morpholin-4-yl)azetidin-1-yl]-1-[3-(trifluoromethyl)phenyl]-1H-pyrazolo[3,4-d]pyrimidin-6-yl}amino)cyclobutanol]

Row | Compound | IC50 (human IRAK4) [nM] | CLblood, human microsomes [1] | Fmax, human microsomes [1]
19 | CC(C)(O)C1CCN(c2nc(N[C@H]3CN4CCC3CC4)nc3c2cnn3-c2cccc(C(F)(F)F)c2)CC1 [Example I-64-1, 2-(1-{6-[(3R)-1-azabicyclo[2.2.2]octan-3-ylamino]-1-[3-(trifluoromethyl)phenyl]-1H-pyrazolo[3,4-d]pyrimidin-4-yl}piperidin-4-yl)propan-2-ol] | 8.58 | 0.32 L/h/kg | 76%
